Assays:
human tasting = test: Human tasting of GSA with high potency sweeteners such as rebaudioside A; format: in vivo; conditions: pure form
tasters = test: Human tasting of sweet/flavor modifying ingredient in HFCS solution versus HFCS control; format: in vivo
Procedure: For testing the material as a sweet/flavor modifying ingredient, two samples were prepared: a 4° Brix high-fructose corn syrup (HFCS) control solution and a 4° Brix HFCS solution with a known concentration of test ingredient.
4° Brix HFCS control solution was prepared by adding 50.89 grams of 78.60° Brix HFCS to 1000 g phosphoric acid base which was prepared by adding phosphoric acid dropwise into 1 L of Aquafina Water until pH 3.1 was obtained. pH was measured using a METTLER TOLEDO pH meter.
If any cloudiness persisted, the sample solution was passed through a paper filter. For some low soluble compounds, Branson 2800 Ultra Sonic Bath was used to dissolve the material. Solubility was confirmed by shining a laser pointer through the solution. If no diffraction was observed then it was assumed that the material was soluble.
For each test, 12-16 tasters were presented with these two (2) numbered samples and asked to note the sweet quality differences between the two samples. Tasters were also asked to comment on sweetness onset, sweetness linger, overall sugarlike sweetness and other qualities such as bitter taste, metallic note, astringency, cooling sensation, any offnotes and any associated flavors. Tasters were also asked to assess sample odor differences and provide any descriptions.
Tasters were asked to not to eat at least 1 hour before tasting and rinse with Aquafina water at least 5 times between tasting all samples.
Compound 5 was added at 35 ppm to 4 Brix HFCS in phosphoric acid (as described above). This solution was compared with 4 Brix HFCS in phosphoric acid.

[1] = 35 ppm in 4 Brix HFCS in phosphoric acid (pH 3.1) vs 4 Brix HFCS control

COc1cc(C(=O)O)cc(OC)c1O[C@@H]1O[C@H](CO)[C@@H](O)[C@H](O)[C@H]1O [Compound 5, Syringic acid 4-O-β-D-glucoside]
bitter, metallic and licorice off-notes of high potency sweeteners (human tasting; e.g. 300 ppm solution of Rebaudioside A in phosphate buffer): decreasing bitter, metallic and licorice off-notes
sweetness time-of-onset for high potency sweeteners (human tasting; high potency sweeteners such as rebaudioside A): decreasing the sweetness time-of-onset
overall sugarlike sweetness reported by tasters (tasters; [1]): more sugar-like
sweetness onset reported by tasters (tasters; [1]): earlier onset
sweet quality difference reported by tasters (tasters; 35 ppm in 4 Brix HFCS in phosphoric acid (pH 3.1) vs 4 Brix HFCS control, majority of 12-16 tasters noted a difference): rounder sweetness
overall sweetness of nutritive sweetener sweetened beverages (tasters; pure form, human tasting, nutritive sweetener e.g. high-fructose corn syrup (HFCS)): effective in increasing the overall sweetness
sweet quality of sweetened beverages (tasters; pure form, human tasting, sweetened beverages): improving the sweet quality
